Experimental data reported in PubChem BioAssay (NCI).
Values joined by “and” are separate entries in the source; they are usually repeats but may differ in a detail not shown here. Equal values may be shown once.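 Briefly, cells in 96-well plates were exposed to five compound concentrations for 48 h, and endpoints were estimated by linear interpolation. Here, GI50 denotes the concentration required for 50% inhibition of growth. TGI is the concentration that stops growth completely.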

Experiments:
Assay in all cases: inhibition of tumour cell growth, NCI panel, 48 h
[1] = system: 786-0 renal
[2] = system: A498 renal
[3] = system: CCRF-CEM leukemia
[4] = system: DMS 273 small cell lung
[5] = system: HCC-2998 colon
[6] = system: HOP-18 NSCLC
[7] = system: KM20L2 colon
[8] = system: MDA-MB-231 breast
[9] = system: MDA-MB-435
[10] = system: SNB-78 CNS
[11] = system: XF 498 CNS

Compound	TGI [1]	TGI [2]	TGI [3]	TGI [4]	TGI [5]	TGI [6]	TGI [7]	TGI [8]	TGI [9]	TGI [10]	TGI [11]	GI50 [2]	GI50 [8]	GI50 [9]	GI50 [1]	GI50 [3]	GI50 [7]	GI50 [10]	GI50 [11]	GI50 [5]
COc1cc2c(c(OC)c1OC)-c1ccc(SC)c(=O)cc1C(NC=O)CC2 (centres undefined)	> 100 µM	1.76 µM	> 74.8 µM	> 100 µM	> 100 µM	> 100 µM	< 0.01 µM	> 4.64 µM	< 0.01 µM	> 100 µM	> 100 µM									
COc1ccc(NC(=O)/C(Cc2cc(=O)oc3cc(O)ccc23)=N\NC(C)(C)C)c(OC)c1	> 100 µM	> 100 µM	> 100 µM		> 100 µM		> 100 µM			> 100 µM	> 100 µM									
[N-]=[N+]=N[C@H]1C[C@@H](CO)O[C@H]1n1cnc2c(N)ncnc21	> 100 µM			> 100 µM	> 100 µM	> 100 µM	> 100 µM			> 100 µM	> 100 µM									
NC(=O)C12CC3CC(CC(F)(C3)C1)C2	> 100 µM	> 100 µM	> 100 µM	> 100 µM	> 100 µM		> 100 µM			> 100 µM	> 100 µM									
Cc1[nH]c2ccccc2c1C(=O)/C=C/c1ccccc1O	> 100 µM	> 100 µM	> 100 µM	> 100 µM	> 100 µM	> 100 µM	> 100 µM				> 100 µM									
CC1c2c(Cl)nc3ccccc3c2Oc2c1c(Cl)nc1ccccc21	> 100 µM	> 100 µM	> 100 µM	> 100 µM	> 100 µM	> 100 µM	> 100 µM			> 100 µM										
O=C(/C=C/c1cccc2ccccc12)c1ccccc1Cl	27.2 µM	29.5 µM	17.2 µM	31.5 µM	28.4 µM	33.3 µM	25.6 µM			40.9 µM	20.6 µM									
CC1CN(C(=O)CN2CCC(CCCCN(C)C)CC2)c2ccccc2NC1=O (centres undefined)	> 100 µM	> 100 µM	> 100 µM	> 100 µM	> 100 µM	> 100 µM	> 100 µM													
COC1(OC)C(N(C)C)=C(Cl)C(=O)/C1=C/C=O	> 100 µM	> 100 µM	98.2 µM	> 100 µM	> 100 µM	> 100 µM	> 100 µM													
Cc1cc(Cl)ccc1NC(=O)C(=O)Cc1nc2ccccc2o1	> 100 µM	> 100 µM	> 100 µM	> 100 µM	> 100 µM	> 100 µM	> 100 µM			> 100 µM	> 100 µM									
CCOC(=O)C(=[N+]=[N-])[Si](C)(C)C	> 100 µM	> 100 µM		> 100 µM	> 100 µM	> 100 µM	> 100 µM			> 100 µM	> 100 µM									
CCOc1ccc(NC(=O)C(=O)CC(=O)c2c(C)n([O-])c3ccccc3[n+]2=O)cc1	> 100 µM	> 100 µM	> 100 µM	> 100 µM	> 100 µM	> 100 µM	> 100 µM			> 100 µM	> 100 µM									
CC(=O)c1sc(Nc2nnc(-c3ccc(-c4nnc(Nc5nc(C)c(C(C)=O)s5)o4)cc3)o2)nc1C	> 100 µM	> 100 µM	> 100 µM	> 100 µM	> 100 µM	> 100 µM	> 100 µM			> 100 µM										
CC(=O)OC12C=CC(=O)N1c1ccccc1C(=O)O2 (centres undefined)	> 100 µM	> 100 µM	> 100 µM	> 100 µM	> 100 µM	> 100 µM	> 100 µM	> 100 µM	> 100 µM	> 100 µM	> 100 µM	> 100 µM	> 100 µM	> 100 µM						
CCOc1ccc(NC(=O)CC#N)cc1	> 100 µM	> 100 µM	> 100 µM	> 100 µM	> 100 µM	> 100 µM	> 100 µM			> 100 µM	> 100 µM									
COc1cccc(C2=NC(C(C)C)CO2)c1 (centres undefined)	> 100 µM	> 100 µM	> 100 µM	> 100 µM	> 100 µM		> 100 µM			> 100 µM	> 100 µM									
CN(C)CC1CCCC/C1=N/OC(=O)c1ccc(Cl)cc1 (centres undefined)	> 100 µM	> 100 µM	> 100 µM	> 100 µM	> 100 µM	> 100 µM	> 100 µM			> 100 µM	> 100 µM									
Cc1ccc(NC(=O)CCc2cc(C(C)(C)C)nc(=S)[nH]2)cc1C	> 100 µM	> 100 µM	> 100 µM	> 100 µM	> 100 µM	> 100 µM	> 100 µM			> 100 µM	> 100 µM									
Cc1cc(N(CCC#N)CCC#N)ccc1N=Nc1ccc(C(=O)O)cc1	> 100 µM	> 100 µM		> 100 µM	> 100 µM	> 100 µM				> 100 µM	> 100 µM									
CCN1CCC(O)(c2ccc(OC)cc2)C(C(=O)c2ccc(OC)cc2)C1 (centres undefined)	26.8 µM			50.2 µM	41.2 µM		33.2 µM			59.3 µM	31.7 µM									
C1CN2CCN3CCN4CCN1[P+]243	> 100 µM	> 100 µM	> 100 µM	> 100 µM	> 100 µM	> 100 µM	> 100 µM			> 100 µM	> 100 µM									

Compound	TGI [1]	TGI [2]	TGI [3]	TGI [4]	TGI [5]	TGI [6]	TGI [7]	TGI [8]	TGI [9]	TGI [10]	TGI [11]	GI50 [2]	GI50 [8]	GI50 [9]	GI50 [1]	GI50 [3]	GI50 [7]	GI50 [10]	GI50 [11]	GI50 [5]
O=c1ccn([C@H]2CSC[C@@H](CO)C2)c(=O)[nH]1	> 100 µM	> 100 µM	> 100 µM	> 100 µM	> 100 µM	> 100 µM	> 100 µM			> 100 µM										
O=C1/C(=C/c2ccc(Cl)cc2)CCC1CCN1CCOCC1 (centres undefined)	> 100 µM	> 100 µM	> 100 µM	> 100 µM	> 100 µM	> 100 µM	> 100 µM			> 100 µM	> 100 µM									
CC(=O)Oc1c2c(c(O)c3ccccc13)C(n1cnc3c(ncn3C3OC(CO)C4OC(C)(C)OC43)c1=N)CCC2 (centres undefined)	27.8 µM	33.3 µM	25.3 µM	40.6 µM	28.4 µM	34.6 µM	53.5 µM			59.6 µM										
CN1CCOC(c2ccccc2)O1 (centres undefined)	> 100 µM	> 100 µM	> 100 µM	> 100 µM	> 100 µM	> 100 µM	> 100 µM			> 100 µM										
CCC[CH2][Sn]([Cl])([CH2]CCC)[CH2]CCC	0.21 µM		0.225 µM				0.295 µM			0.313 µM	0.202 µM				0.087 µM	0.0288 µM	0.136 µM	0.129 µM	0.0599 µM	
CN1C(=O)N(C)C2C1NN=c1s/c(=C\c3ccc(Cl)cc3Cl)c(=O)n12 (centres undefined)	> 48.8 µM	0.653 µM	> 100 µM		15.5 µM			19.6 µM	2.11 µM			0.067 µM	0.479 µM	0.0333 µM	0.703 µM	0.262 µM				0.281 µM
COc1cc(NCc2ccc3nc(N)nc(N)c3c2C)cc(OC)c1OC (tested in a mixture with another compound)		49.5 µM	86 µM	12.3 µM		146 µM	48.5 µM	55.2 µM	50.1 µM	116 µM	8.19 µM		0.0893 µM	0.000388 µM	0.0145 µM and 0.025 µM					0.00957 µM
COc1ccc(CC2NCCc3c2[nH]c2ccccc32)cc1 (centres undefined)	> 100 µM	> 100 µM	> 100 µM	87.7 µM	48.3 µM		> 100 µM			> 100 µM	66.5 µM									
S=c1sc2c(Cl)nc(Cl)nc2n1-c1ccccc1	> 100 µM	> 100 µM	75.8 µM	> 100 µM	> 100 µM	> 100 µM	> 100 µM			> 100 µM	> 100 µM									
O=C1OCC2=C1C(c1cccc(Br)c1)c1cc3c(cc1N2CCO)CCC3 (centres undefined)	6.22 µM	0.199 µM	10 µM		1.66 µM			1.22 µM	0.0423 µM			0.0155 µM	0.191 µM	0.0132 µM	0.201 µM	0.148 µM				0.13 µM
COc1ccc2[nH]cc(C3(c4c[nH]c5ccc(OC)cc45)C(=O)Nc4ccc(F)cc43)c2c1	12.5 µM	12 µM	22.4 µM		8.97 µM			3.56 µM	4.73 µM			2.56 µM	1.57 µM	1.97 µM	3.39 µM	3.04 µM				2.93 µM
CCn1c2ccccc2c2cc(NC(=O)Nc3ccc([N+](=O)[O-])cc3C)ccc21	84.9 µM	64.1 µM	4 µM		> 100 µM			24.6 µM	23.5 µM			11.5 µM	3.66 µM	2.62 µM	4.61 µM	1.62 µM				4.25 µM
CCCNC(=S)NNC(=O)CSc1nc(-c2ccccc2)c(-c2ccccc2)[nH]1	> 100 µM	> 100 µM	> 100 µM	> 100 µM			> 100 µM			> 100 µM	> 100 µM									
O=C(CCc1n[nH]c(=S)o1)Nc1ccccc1C(F)(F)F	> 100 µM	> 100 µM	> 100 µM	> 100 µM	> 100 µM	> 100 µM	> 100 µM			> 100 µM										
CN(C)C(n1cc2c(c1)-c1ccc(Cl)cc1C(c1ccccc1F)=NC2)n1cc2c(c1)-c1ccc(Cl)cc1C(c1ccccc1F)=NC2	> 100 µM	> 100 µM	> 100 µM		> 100 µM			> 100 µM	> 100 µM											
CC[C@H]1[C@@H]2C=C[C@@H]3[C@H]4C/C=C\C(=O)NCCC[C@@H]5NC(=O)/C(=C(O)/C=C/[C@@H]4C[C@@H]3[C@H]2C[C@H]1C)C5=O	1.59 µM	3.08 µM	4.29 µM		3.62 µM			2.66 µM	2.25 µM			1.67 µM	1.3 µM	0.982 µM	0.44 µM	1.59 µM				1.8 µM
O=C1/C(=C/c2ccc3c(c2)OCO3)SC2C=Nc3ccccc3N12 (centres undefined)	> 100 µM	> 100 µM		> 100 µM	> 100 µM	> 100 µM	> 100 µM			> 100 µM	> 100 µM									
OCC1OC(c2nc(C3=NCCCN3)cs2)C(O)C1O (centres undefined)	> 100 µM	> 100 µM	> 100 µM	> 100 µM	> 100 µM	> 100 µM	> 100 µM			> 100 µM	> 100 µM									
Cc1ccccc1N1C(=O)C2C=CC(n3[nH]c(=O)n(Cc4ccccc4)c3=O)CC2C1=O (centres undefined)	> 100 µM	> 100 µM	> 100 µM	> 100 µM	> 100 µM	> 100 µM	> 100 µM			> 100 µM	> 100 µM									
O=C1Nc2ccccc2/C1=N\[O-].O=C1Nc2ccccc2/C1=N\[O-].[Cu+2]	> 100 µM	> 100 µM	> 100 µM		> 100 µM			> 100 µM	> 100 µM			> 100 µM	> 100 µM	> 100 µM	> 100 µM	> 100 µM				> 100 µM
